The source of these data is patent US20220249592A1, “MUSCLE QUALITY IMPROVEMENT AGENT” (AJINOMOTO CO., INC., priority 2019, published 2022).

*1 amine or outer side, *2 acyl side, *3 side chain or, on linkers, in order; H or OH if unused. Where a SMILES comes first, the peptide text is derived from it. γGlu = O=C(O)[C@H](CCC(=O)[*:2])N[*:1]

Experiment [1] concerns mouse-derived muscle cell line C2C12. Nature of the experiment: Muscle insulin signal (phosphorylated Akt/total Akt phosphorylation index) in C2C12 myotube cells exposed to palmitic acid (FFA). Format: cell-based. As to conditions: for insulin signal that declined due to FFA: 500 μM. The protocol: Muscle anabolic signal was monitored by insulin signal, and the action of γ-glutamyl peptide on the decline of insulin signal was evaluated. As the γ-glutamyl peptide, the actions of γ-L-glutamyl-L-valine (γEV), γ-L-glutamyl-L-cysteine (γEC), and γ-L-glutamyl-L-valylglycine (γEVG) were evaluated.
The evaluation was performed using an evaluation system in which exposure of the mouse-derived muscle cell line C2C12 to saturated fatty acid results in a decline in insulin signal, as described below.
Using mouse C3H skeletal muscle myoblast cell line (C2C12 cell) (DS Pharma Biomedical Co., Ltd.), the evaluation was performed.
Induction of differentiation into myotube cells (Myotubes) was performed using cells with myoblast passage number of 12 to 18. Myoblasts were seeded in a 12-well (diameter=3 cm) plate at 0.3×10^5 to 0.5×10^5 cells/well. After confirmation that the cell proliferation state reached 90% confluent, the medium was replaced with DMEM supplemented with 2 (w/v) % horse serum (HS) and 1 (w/v) % penicillin-streptomycin-glutamine (2 (w/v) % HS, 1 (w/v) % P/S, 1 (w/v) % Gln/DMEM), and differentiation into myotube cells (Myotubes) was induced. After confirmation of differentiation into myotube cells (Myotubes), a muscle insulin signal evaluation system was constructed, and the action of each of γEV, γEC, and γEVG was evaluated using the constructed evaluation system.
The myotube cells (Myotubes) were cultured overnight (17 hr to 24 hr) at 37° C. in a 0.5 mM palmitic acid (FFA)/0.5 (w/v) % albumin (BSA)/DMEM culture medium in the presence of 5 (v/v) % carbon dioxide.
After culturing overnight, the cells were preincubated for about 2 hr in DMEM (BSA/FFA free), stimulated by incubation (15 min to 20 min) with 100 nM insulin, and the myotube cells were collected (each n=1 to 2). From the collected cells, proteins were extracted with RIPA (Radio-Immunoprecipitation Assay) buffer (Cell Signaling Technologies Inc.), adjusted to a final protein concentration of 0.5 mg/mL, and used as samples.
The expression levels of phosphorylated Akt (pAkt) (Ser473) (#9271S; Cell Signaling Technologies Inc.), and total Akt (#9272S; Cell Signaling Technologies Inc.) in the above-mentioned sample were quantified by the Western blotting (WB) method. The expression level of each protein was quantified using Western blot-chemiluminescent imaging system (Fusion FX) (Vilber-Lourmat Inc.).
Each γ-glutamyl peptide was added simultaneously with FFA, and the muscle quality-improving effect was examined with the recovery of the muscle insulin signal as an index. The final concentration of γEV was adjusted to 100 μM or 300 μM, and the final concentrations of γEC and […] were adjusted to 500 μM. As a positive control, an antioxidative active substance N-acetylcysteine (NAC) 5 mM was used.
From the measurement results of the expression levels of phosphorylated Akt (Ser473) and total Akt, the ratio of phosphorylated Akt and total Akt with insulin stimulation to the ratio of phosphorylated Akt and total Akt without insulin stimulation [(pAkt/Total Akt) Insulin+]/[(pAkt/Total Akt) Insulin-] was determined and shown in FIGS. 1 and 2 as the phosphorylation index (stimulation index). In the Figures, the average values of the calculated phosphorylation indices are shown in bar graphs. The symbols (●, ▪, ▴, ▾, □, Δ, ∇) in the Figures indicate the calculated values of the phosphorylation index obtained for each sample.

The test system of experiment [2] is C57BL/6J mice. Description: Grip strength (muscle strength) of mice under motility limitation. Format: in vivo, mouse. The settings on record: 0.2 wt % in feed, narrow cage, 28 days; vs motility limitation+lard ingestion group; FIG. 8. The source says:
(§1) Using C57BL/6J mice, the effect of ingestion of γ-glutamyl peptide on the changes in muscle quality and muscle function induced by narrowing the area of the cage used for rearing to limit exercise was investigated.
C57BL/6J mice were grouped into 3 groups shown in Table 2 such that the body weight, grip strength, and lean body weight would be uniform, and one mouse was housed per cage and reared. As cages for rearing mice, a wide cage (width 220 mm×length 320 mm×height 165 mm) and a narrow cage (width 110 mm×length 160 mm×height 130 mm) were used. In addition, as an experimental diet, a diet containing 20 wt % casein and 7 wt % lard or a diet containing 20 wt % casein, 7 wt % lard, and 0.2 wt % γ-glutamyl valine (γEV) was supplied.
After rearing for 28 days under the above-mentioned conditions, the grip strength of each mouse was measured and the muscle strength was evaluated.
The grip strength of the mouse was measured using a grip strength meter for small animals (“Chatillon”, Columbus Instruments). […] The aforementioned grip strength was consecutively measured five times, and the average value was calculated and used as the grip strength value of each individual. […]

The subject of experiment [3] is Sprague-Dawley (SD) male rats. Description: Amount of diacylglycerol and fatty acid composition in muscle diacylglycerol in rats fed a high-fat diet. The experiment is classed as in vivo, rat. The settings on record: 0.2 wt % in 30 wt % fat feed plus exercise, 6th week, vs high fat group p<0.01. The protocol:
(§2) Furthermore, the exercise groups (exercise group and exercise+γEV group) were made to perform exercise once a week under the exercise load conditions shown below.
(§3) At the 5th week of feeding the high-fat diet, the exercise function (walking function) was evaluated as follows. At the 6th week of feeding the high-fat diet, an autopsy was performed, and the muscle (tibialis anterior muscle) weight was measured. As described below, the muscle insulin sensitivity was evaluated, the fatty acid composition in muscle diacylglycerol was analyzed, and the muscle function was evaluated.
The amount of diacylglycerol (DAG) in muscle, which is highly related to muscle insulin sensitivity, was analyzed, and the composition of fatty acid contained in DAG was analyzed.
The fat ingredient in the muscle collected during autopsy was extracted according to a chloroform/methanol method, and the DAG fraction was extracted using thin layer chromatography (TLC). […] DAG was quantified at 600 nm by a colorimetric method.
The DAG fraction after development was extracted by a chloroform/methanol method, and fatty acid in DAG was quantified. As fatty acids, 9 kinds of fatty acids (lauric acid, myristic acid, palmitoleic acid, palmitic acid, linolenic acid, linoleic acid, oleic acid, stearic acid, arachidonic acid) mainly contained in the living body were selected and analyzed using gas chromatography. […]

The subject of experiment [4] is Sprague-Dawley (SD) male rats. Description: Muscle (tibialis anterior muscle) weight in rats fed a high-fat diet with exercise load. As to conditions: 0.2 wt % in 30 wt % fat feed plus exercise, 6th week; compared with exercise only group; FIG. 3. Format: in vivo, rat. How it is done: as §2, §3
The exercise was performed using the left leg of the rat by applying a local resistance exercise load. A rat under isoflurane anesthesia was placed in an ankle exercise device for small animals (Bioresearch Center K.K.), a skin stimulation electrode was attached to the tibialis anterior muscle, and contraction was caused by electrical stimulation. At the same time, the tibialis anterior muscle was pulled in the direction opposite to the contraction direction, and an extension load was applied. The exercise load setting conditions are shown below.
(i) contraction (electric) load condition: 4 mA to 5 mA, 100 Hz, 1100 msec
(ii) extension load condition: angle of left leg joint was extended from 90° to 135° at rate=100 deg/sec […]

Experiment [5] has as its system insulin receptor substrate-1 (IRS-1). Description: Muscle insulin sensitivity (IRS-1 serine phosphorylation activity, Western blotting) in rats fed a high-fat diet. Format: in vivo, rat. The settings on record: 0.2 wt % in 30 wt % fat feed plus exercise, 6th week; vs high fat group p<0.01; FIG. 5. How it is done:
as §2, §3
As an index of muscle insulin sensitivity, insulin receptor substrate-1 (IRS-1) serine phosphorylation activity was evaluated by a Western blotting (WB) method. […]
As the antibodies, anti-Phospho-IRS-1 (Ser307) antibody (Cell Signaling Technologies Inc.), and anti-total IRS-1 antibody (Cell Signaling Technologies Inc.) were used, the expression levels of Phospho-IRS-1 (Ser307) and total IRS-1 were quantified using Western blot-chemiluminescent imaging system (Fusion FX) (Vilber-Lourmat Inc.).
As an index of insulin sensitivity, the ratio of Phospho-IRS-1 (Ser307) expression level to total IRS-1 expression level [(Phospho-IRS-1 (Ser307))/(total IRS-1)] was determined. […]

The subject of experiment [6] is Sprague-Dawley (SD) male rats. Description: Walking function (stride of walking, length and width) in rats fed a high-fat diet. Format: in vivo, rat. The settings on record: 0.2 wt % in 30 wt % fat feed plus exercise, 5th week; widening of width and narrowing of length; FIG. 4. The protocol: as §2, §3
The walking function was evaluated by walking the rat without an anesthesia and observing the state of walking. India ink was applied to the plantar part of the both legs of the rat, and the rat was made to walk through a cylindrical tunnel with Japanese writing paper laid therein and the stride of walking (width and length) was measured based on the trace of the right leg and the left leg after walking, and the walking function was evaluated.
The respective measurement or evaluation or analysis results of the above-mentioned (2) to (4) are shown by mean±standard error in FIG. 3 to FIG. 7. […]

Experiment [7] relates to C57BL/6J mice. Description: Amount of neutral fat in muscle and palmitic acid in neutral fat in muscle of mice under motility limitation. Format: in vivo, mouse. The settings on record: 0.2 wt % in feed, narrow cage, 28 days, vs motility limitation+lard ingestion group.
Text: as §1
C57BL/6J mice were grouped into 3 groups shown in Table 2 such that the body weight, grip strength, and lean body weight would be uniform, and one mouse was housed per cage and reared. As cages for rearing mice, a wide cage (width 220 mm×length 320 mm×height 165 mm) and a narrow cage (width 110 mm×length 160 mm×height 130 mm) were used. […]
After the completion of the above-mentioned grip strength measurement, muscles (gastrocnemius muscles) were collected from the mice in each group, and the amount of neutral fat in the muscle, which is one of the indicators of muscle quality, and the amount of palmitic acid in neutral fat in the muscle were measured.
Fat ingredient was extracted according to a chloroform/methanol method from the collected muscle, and the neutral fat content was measured by a colorimetric method at 600 nm, as well as the neutral fat was fractionated and collected by thin layer chromatography (TLC). […] The neutral fat fraction was extracted again by a chloroform/methanol method, and the composition of the fatty acid in the neutral fat was analyzed, and the amount of palmitic acid was measured. The composition of the fatty acid was analyzed by gas chromatography. […]

The mark [8] stands for this setting: added simultaneously with 0.5 mM FFA, FIG. 2.

In the case of `N[C@@H](CCC(=O)N[C@@H](CS)C(=O)O)C(=O)O` [γEC, γ-L-glutamyl-L-cysteine], the “insulin signal that declined due to FFA” value in experiment [1] (setting [8]) is listed as “increase the insulin signal”.
As to `CC(C)[C@H](NC(=O)CC[C@H](N)C(=O)O)C(=O)NCC(=O)O` [γEVG, γ-L-glutamyl-L-valylglycine] (γGlu-Val-Gly-OH), the “insulin signal that declined due to FFA” value in experiment [1] (setting [8]) was “increase the insulin signal”.
As to `CC(C)[C@H](NC(=O)CC[C@H](N)C(=O)O)C(=O)O` [γEV, γ-L-glutamyl-L-valine], the grip strength result in experiment [2] is “significantly (p<0.05) improved”. Further, the “increase in the amount of DAG in skeletal muscle” value in experiment [3] (FIG. 6) is “significantly suppressed”. Further, the “amount of palmitic acid in muscle DAG” value in experiment [3] (FIG. 7) is listed as “significantly lower than in the high fat group”. Moreover, the “muscle weight (tibialis anterior muscle, weight ratio to body weight)” value in experiment [4] is reported as “increase in the muscle weight tended to be promoted”. Further, the “muscle insulin signal increasing action compared with NAC” value in experiment [1] (100 μM vs NAC 5 mM, FIG. 2) is on record as “superior to that of NAC”; in experiment [1] (300 μM vs NAC 5 mM, FIG. 1), “equal to or higher than that of NAC”. Moreover, in experiment [1] (300 μM, added simultaneously with 0.5 mM FFA, 100 nM insulin stimulation, FIG. 1), the “decline in muscle insulin signal due to FFA (phosphorylation index)” value is recorded as “recovered”. Moreover, the “decline in muscle insulin sensitivity [(Phospho-IRS-1 (Ser307))/(total IRS-1)]” value in experiment [5] was “significantly suppressed”. Also, the “stride of walking (length and width) during walking” value in experiment [6] is recorded as “suppressed to the same levels as in the normal group”. For the same molecule, the “amount of neutral fat in the muscle (gastrocnemius muscle)” value in experiment [7] (FIG. 9) is “significantly (p<0.1) small”. Moreover, the “amount of palmitic acid in the neutral fat in the muscle (gastrocnemius muscle)” value in experiment [7] (FIG. 10) is reported as “significantly (p<0.1) small”.
